ChEMBL document CHEMBL4130457, “Discovery of AZD-2098 and AZD-1678, Two Potent and Bioavailable CCR4 Receptor Antagonists” (ACS Med Chem Lett, 2017)
≈ marks a conversion by molar mass, not a printed value. Calls of active or inactive are those of the source. The calls are words filed in the database; no cut-off is given here.

Legend:
[1] = Protein binding in human plasma; format: ADME, cell-free; details: read-out: PPB (converted)
[2] = Solubility of the compound; format: physicochemical
[3] = tested on: Hepatocyte; assay: Stability in human hepatocytes assessed per million cells
[4] = Antagonist activity at rat CCR4
[5] = molecular target: T1, C-C chemokine receptor type 4 (Mus musculus, UniProt P51680); assay: Antagonist activity at mouse CCR4; format: functional
T1 sequence (P51680 whole entry): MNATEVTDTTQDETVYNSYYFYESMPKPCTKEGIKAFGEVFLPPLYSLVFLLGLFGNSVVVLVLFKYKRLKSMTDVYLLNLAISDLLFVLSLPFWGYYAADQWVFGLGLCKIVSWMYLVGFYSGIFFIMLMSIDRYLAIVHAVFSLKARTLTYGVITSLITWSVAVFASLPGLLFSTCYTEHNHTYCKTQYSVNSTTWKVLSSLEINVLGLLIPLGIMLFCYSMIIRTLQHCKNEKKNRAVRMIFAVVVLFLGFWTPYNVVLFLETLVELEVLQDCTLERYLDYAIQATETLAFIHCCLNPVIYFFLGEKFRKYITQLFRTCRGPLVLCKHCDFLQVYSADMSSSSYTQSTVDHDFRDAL

[6] = molecular target: T2, C-C chemokine receptor type 4 (Homo sapiens, UniProt P51679); assay: Antagonist activity at recombinant human CCR4 expressed in CHO-K1 cells assessed as inhibition of CCL22 induced Ca2+ mobilization after 2 hrs by FMAT based fluorescence assay; format: functional, cell-based
T2 sequence (P51679 whole entry): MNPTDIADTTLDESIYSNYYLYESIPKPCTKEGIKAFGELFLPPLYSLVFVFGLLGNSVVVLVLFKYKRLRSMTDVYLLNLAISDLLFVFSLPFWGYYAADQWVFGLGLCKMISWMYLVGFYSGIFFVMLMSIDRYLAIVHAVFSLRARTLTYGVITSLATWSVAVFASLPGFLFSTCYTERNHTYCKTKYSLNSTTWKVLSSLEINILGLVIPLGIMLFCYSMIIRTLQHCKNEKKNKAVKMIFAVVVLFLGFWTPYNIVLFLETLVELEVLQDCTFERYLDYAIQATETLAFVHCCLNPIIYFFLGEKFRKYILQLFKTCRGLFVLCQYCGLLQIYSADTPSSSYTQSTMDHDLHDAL

[7] = molecular target: T3, C-X-C chemokine receptor type 2 (Homo sapiens) (UniProt P25025); assay: Antagonist activity at CXCR2 (unknown origin) at 10 uM; format: functional
T3 sequence (whole entry): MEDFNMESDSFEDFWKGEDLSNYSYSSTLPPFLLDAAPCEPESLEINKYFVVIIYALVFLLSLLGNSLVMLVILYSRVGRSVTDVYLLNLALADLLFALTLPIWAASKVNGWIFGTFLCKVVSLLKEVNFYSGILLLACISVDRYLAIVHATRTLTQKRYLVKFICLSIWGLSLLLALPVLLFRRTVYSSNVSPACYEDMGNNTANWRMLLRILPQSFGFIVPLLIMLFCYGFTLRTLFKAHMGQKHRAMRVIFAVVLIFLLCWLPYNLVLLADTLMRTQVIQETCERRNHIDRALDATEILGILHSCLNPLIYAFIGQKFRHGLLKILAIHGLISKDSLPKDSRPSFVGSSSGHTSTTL

[8] = molecular target: T4, C-C chemokine receptor type 1 (Homo sapiens) (UniProt P32246); assay: Antagonist activity at CCR1 (unknown origin) at 10 uM; format: functional
T4 sequence (whole entry): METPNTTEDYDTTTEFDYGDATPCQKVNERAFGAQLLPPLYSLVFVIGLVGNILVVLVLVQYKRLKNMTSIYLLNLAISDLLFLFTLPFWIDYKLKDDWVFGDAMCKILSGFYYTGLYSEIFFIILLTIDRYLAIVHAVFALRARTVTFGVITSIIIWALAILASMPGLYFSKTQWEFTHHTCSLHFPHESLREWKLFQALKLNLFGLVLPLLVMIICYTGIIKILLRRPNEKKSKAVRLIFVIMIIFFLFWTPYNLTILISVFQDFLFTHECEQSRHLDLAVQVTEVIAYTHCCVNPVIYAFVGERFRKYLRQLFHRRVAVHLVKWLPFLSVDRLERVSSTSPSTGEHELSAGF

[9] = molecular target: C-C chemokine receptor type 2 (Homo sapiens) (UniProt P41597); assay: Antagonist activity at CCR2b (unknown origin) at 10 uM
[10] = molecular target: C-C chemokine receptor type 5 (Homo sapiens) (UniProt P51681); assay: Antagonist activity at CCR5 (unknown origin) at 10 uM; format: functional
[11] = Clearance in dog at 9 umol/kg, po or 3 umol/kg, iv; format: ADME, organism-based, Canis lupus familiaris; details: in vivo
[12] = Volume of distribution at steady state in rat at 9 umol/kg, po or 3 umol/kg, iv; format: ADME, organism-based; details: in vivo, read-out: Vdss
[13] = Volume of distribution at steady state in dog at 9 umol/kg, po or 3 umol/kg, iv; format: ADME, organism-based, Canis lupus familiaris; details: in vivo, read-out: Vdss
[14] = Half life in rat at 9 umol/kg, po or 3 umol/kg, iv; format: ADME, organism-based; details: in vivo
[15] = Oral bioavailability in rat at 9 umol/kg; format: ADME, organism-based; details: in vivo
[16] = Oral bioavailability in dog at 9 umol/kg; format: ADME, organism-based, Canis lupus familiaris; details: in vivo
[17] = molecular target: T5, C-C chemokine receptor type 4 (Homo sapiens) (UniProt P51679); assay: Agonist activity at CCR4 (unknown origin) up to 10 uM; format: functional
T5 sequence (whole entry): T2 sequence (P51679 whole entry)

[18] = tested on: Rattus norvegicus; assay: Antiinflammatory activity in OVA-induced Brown Norway rat lung assessed as reduction in alveolitis administered po bid 1 hr prior to antigen challenge and every 12 hrs prior to termination 96 hrs post challenge by histopathological analysis; format: functional, organism-based
[19] = tested on: Rattus norvegicus; assay: Antiinflammatory activity in OVA-induced Brown Norway rat lung assessed as reduction in leukocyte trafficking in microvasculature administered po bid 1 hr prior to antigen challenge and every 12 hrs prior to termination 96 hrs post challenge by histopathological analysis; format: functional, organism-based
[20] = Terminal trough concentration in OVA-induced Brown Norway rat plasma at 3 umol/kg, po bid measured 12 hrs post last dose; format: ADME, organism-based; details: read-out: Cmin
[21] = Ratio of free plasma concentration in Brown Norway rat at 3 umol/kg to pIC50 for recombinant human CCR4 expressed in CHO-K1 cells; format: ADME, cell-based; details: in vivo
[22] = Ratio of free plasma concentration in Brown Norway rat at 7.5 umol/kg to pIC50 for recombinant human CCR4 expressed in CHO-K1 cells; format: ADME, cell-based; details: in vivo
[23] = Ratio of free plasma concentration in Brown Norway rat at 15 umol/kg to pIC50 for recombinant human CCR4 expressed in CHO-K1 cells; format: ADME, cell-based; details: in vivo

Sequence of C-C chemokine receptor type 5 (Homo sapiens) (P51681 whole entry, looked up): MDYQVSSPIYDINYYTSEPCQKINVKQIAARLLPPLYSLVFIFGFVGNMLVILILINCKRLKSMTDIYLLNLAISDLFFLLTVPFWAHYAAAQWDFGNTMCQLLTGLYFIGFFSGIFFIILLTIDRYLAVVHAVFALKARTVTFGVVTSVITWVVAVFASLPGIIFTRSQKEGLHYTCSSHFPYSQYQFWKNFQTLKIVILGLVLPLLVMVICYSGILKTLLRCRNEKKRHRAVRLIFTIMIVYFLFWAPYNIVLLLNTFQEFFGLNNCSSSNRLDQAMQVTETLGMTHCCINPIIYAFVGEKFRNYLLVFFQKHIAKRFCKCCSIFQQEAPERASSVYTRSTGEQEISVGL
Sequence of C-C chemokine receptor type 2 (Homo sapiens) (P41597 whole entry, looked up): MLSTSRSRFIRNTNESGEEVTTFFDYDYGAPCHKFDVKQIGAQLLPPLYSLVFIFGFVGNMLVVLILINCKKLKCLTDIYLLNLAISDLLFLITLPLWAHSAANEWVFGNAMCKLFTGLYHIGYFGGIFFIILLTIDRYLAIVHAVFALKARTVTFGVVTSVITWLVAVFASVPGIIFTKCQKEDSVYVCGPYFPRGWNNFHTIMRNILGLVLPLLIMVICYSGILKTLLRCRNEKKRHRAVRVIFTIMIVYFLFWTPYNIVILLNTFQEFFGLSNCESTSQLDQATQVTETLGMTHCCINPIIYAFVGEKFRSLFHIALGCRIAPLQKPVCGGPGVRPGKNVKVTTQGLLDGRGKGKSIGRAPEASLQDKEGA

COc1nccnc1NS(=O)(=O)c1cccc(Cl)c1Cl
fraction unbound [1]: 0.011 | solubility [2]: 1500 µg/mL (≈ 4.49 mM) | Stability [3]: < 0.2 uL/ml | pIC50 [4]: 8 | IC50 [5]: 10 nM | IC50 [6]: 15.8 nM | Activity [7]: inactive | Activity [8]: inactive | Activity [9]: inactive | Activity [10]: inactive | clearance [11]: 1.5 mL/min/kg | Vd [12]: 0.2 L/kg | Vd [13]: 0.1 L/kg | half-life [14]: 1.7 h | bioavailability [15]: 100% | bioavailability [16]: 100% | Activity [17]: inactive | Activity [18]: Dose-dependent effect | Activity [19]: Dose-dependent effect | concentration at 12 h [20]: 33 nM | Ratio [21]: 0.6 | Ratio [22]: 3 | Ratio [23]: 9
